These results are taken from patent US11702409B2, “Pyrazolyl derivatives useful as anti-cancer agents” (NOVARTIS AG, priority 2019, dated 2023).

This experiment concerns the target KRasG12C (M1-K169, biotinylated on the N-terminus) (Homo sapiens (Human), UniProt P01116, G12C). Kind of experiment: Covalent competition assay (scintillation proximity assay, competition with radiolabeled covalent probe Compound B). The note with it: in vitro KRASG12C activity; 10 nM KRasG12C:GDP, 25 nM radio-ligand and 475 nM unlabelled ligand, incubated 2 hours; read-out: Covalent Competition Assay IC50. It counts as binding. An outline of the steps: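 Biotinylated KRasG12C (M1-K169):GDP incubated 2 h with agitation with serially diluted compounds premixed with a fixed concentration of radiolabeled covalent probe; scintillation proximity read-out of competition for covalent modification. Buffer 20 mM Tris-HCl pH 7.5, 150 mM NaCl, 0.1 mM MgCl2, 0.01% Tween-20. IC50 from 4-parameter fit.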
On to `C=CC(=O)N1CC2(CC(n3nc(-c4ccc(C(=O)N(C)CC(C)(C)O)cc4)c(-c4c(Cl)c(C)cc5[nH]ncc45)c3C)C2)C1` (single isomer, unassigned) [Example 67b], for which the IC50 (commonly the point on the concentration scale where inhibition reaches its midpoint) came out at 12100 nM.

As to `C=CC(=O)N1CC2(CC(n3nc(-c4ccc(C(=O)O)cc4)c(-c4c(Cl)c(C)cc5[nH]ncc45)c3C)C2)C1` (single isomer, unassigned) [Example 68a], the IC50 was found to be 59 nM.

Consider `C=CC(=O)N1CC2(CC(n3nc(-c4ccc(C(=O)O)cc4)c(-c4c(Cl)c(C)cc5[nH]ncc45)c3C)C2)C1` (single isomer, unassigned) [Example 68b], for which the IC50 was 1900 nM.

As to `C=CC(=O)N1CC2(CC(n3nc(-c4ccc5nn(CCOC)cc5c4)c(-c4c(Cl)c(C)cc5[nH]nc(N)c45)c3C)C2)C1` (single isomer, unassigned) [Example 69a, 1-(6-{(4M)-4-(3-Amino-5-chloro-6-methyl-1H-indazol-4-yl)-3-[2-(2-methoxyethyl)-2H-indazol-5-yl]-5-methyl-1H-pyrazol-1-yl}-2-azaspiro[3.3]heptan-2-yl)prop-2-en-1-one], the IC50 is 9 nM.

Regarding `C=CC(=O)N1CC2(CC(n3nc(-c4ccc5nn(CCOC)cc5c4)c(-c4c(Cl)c(C)cc5[nH]nc(N)c45)c3C)C2)C1` (single isomer, unassigned) [Example 69b, 1-(6-(4-(3-amino-5-chloro-6-methyl-1H-indazol-4-yl)-3-(2-(2-methoxyethyl)-2H-indazol-5-yl)-5-methyl-1H-pyrazol-1-yl)-2-azaspiro[3.3]heptan-2-yl)prop-2-en-1-one], the IC50 was 840 nM.

On to `C=CC(=O)N1CC2(CC(n3nc(-c4ccccc4)c(-c4c(Cl)c(C)cc5[nH]nc(N)c45)c3C)C2)C1` (single isomer, unassigned) [Example 70a, 1-{6-[(4M)-4-(3-Amino-5-chloro-6-methyl-1H-indazol-4-yl)-5-methyl-3-phenyl-1H-pyrazol-1-yl]-2-azaspiro[3.3]heptan-2-yl}prop-2-en-1-one], for which the IC50 is 30 nM.

With `C=CC(=O)N1CC2(CC(n3nc(-c4ccccc4)c(-c4c(Cl)c(C)cc5[nH]nc(N)c45)c3C)C2)C1` (single isomer, unassigned) [Example 70b, 1-(6-(4-(3-amino-5-chloro-6-methyl-1H-indazol-4-yl)-5-methyl-3-phenyl-1H-pyrazol-1-yl)-2-azaspiro[3.3]heptan-2-yl)prop-2-en-1-one], the IC50 was determined as 2100 nM.

Turning to `C=CC(=O)N1CC2(CC(n3nc(-c4ccc5nnccc5c4)c(-c4c(Cl)c(C)cc5[nH]ncc45)c3C)C2)C1` (single isomer, unassigned) [Example 71a, 1-(6-(4-(5-chloro-6-methyl-1H-indazol-4-yl)-3-(cinnolin-6-yl)-5-methyl-1H-pyrazol-1-yl)-2-azaspiro[3.3]heptan-2-yl)prop-2-en-1-one], the IC50 stood at 101 nM.

`C=CC(=O)N1CC2(CC(n3nc(-c4ccc5nnccc5c4)c(-c4c(Cl)c(C)cc5[nH]ncc45)c3C)C2)C1` (single isomer, unassigned) [Example 71b, 1-(6-(4-(5-chloro-6-methyl-1H-indazol-4-yl)-3-(cinnolin-6-yl)-5-methyl-1H-pyrazol-1-yl)-2-azaspiro[3.3]heptan-2-yl)prop-2-en-1-one]: the IC50 is > 5000 nM.

In the case of `C=CC(=O)N1CC2(CC(n3nc(-c4ccc5c(c4)CS(=O)(=O)C5)c(-c4c(Cl)c(C)cc5[nH]ncc45)c3C)C2)C1` (single isomer, unassigned) [Example 72a], the IC50 was found to be 306 nM.

For `C=CC(=O)N1CC2(CC(n3nc(-c4ccc5c(c4)CS(=O)(=O)C5)c(-c4c(Cl)c(C)cc5[nH]ncc45)c3C)C2)C1` (single isomer, unassigned) [Example 72b], the IC50 came out at 24000 nM.

As for `C=CC(=O)N1CC2(CC(n3nc(C4=CN5CC(C)(C)N=C5C(F)=C4)c(-c4c(Cl)c(C)cc5[nH]ncc45)c3C)C2)C1` (single isomer, unassigned) [Example 73a], the IC50 was 5310 nM.

As to `C=CC(=O)N1CC2(CC(n3nc(C4=CN5CC(C)(C)N=C5C(F)=C4)c(-c4c(Cl)c(C)cc5[nH]ncc45)c3C)C2)C1` (single isomer, unassigned) [Example 73b], the IC50 was > 50000 nM.

For `C=CC(=O)N1CC2(CC(n3nc(-c4c(C)cncc4C)c(-c4c(Cl)c(C)cc5[nH]ncc45)c3C)C2)C1` (single isomer, unassigned) [Example 74a], the IC50 came to 1550 nM.

For the compound `C=CC(=O)N1CC2(CC(n3nc(-c4c(C)cncc4C)c(-c4c(Cl)c(C)cc5[nH]ncc45)c3C)C2)C1` (single isomer, unassigned) [Example 74b], the IC50 is > 50000 nM.

Regarding `C=CC(=O)N1CC2(CC(n3nc(-c4ccc5c(c4)CN(C)C5)c(-c4c(Cl)c(C)cc5[nH]ncc45)c3C)C2)C1` (single isomer, unassigned) [Example 75a], the IC50 came out at 251 nM.

With `C=CC(=O)N1CC2(CC(n3nc(-c4ccc5c(c4)CN(C)C5)c(-c4c(Cl)c(C)cc5[nH]ncc45)c3C)C2)C1` (single isomer, unassigned) [Example 75b], the IC50 is > 50000 nM.

For the compound `C=CC(=O)N1CC2(CC(n3nc(-c4ccc5nn(CCN6CC[C@H](F)C6)cc5c4)c(-c4c(Cl)c(C)cc5[nH]ncc45)c3C)C2)C1` (single isomer, unassigned) [Example 80a], the IC50 was 1300 nM.

Consider `C=CC(=O)N1CC2(CC(n3nc(-c4ccc5nn(CCN6CC[C@H](F)C6)cc5c4)c(-c4c(Cl)c(C)cc5[nH]ncc45)c3C)C2)C1` (single isomer, unassigned) [Example 80b], for which the IC50 was 8 nM.

With `C=CC(=O)N1CC2(CC(n3nc(-c4ccc5nn(CCN6CC(OC)C6)cc5c4)c(-c4c(Cl)c(C)cc5[nH]ncc45)c3C)C2)C1` (single isomer, unassigned) [Example 82a], the IC50 stood at 12 nM.

With `C=CC(=O)N1CC2(CC(n3nc(-c4ccc5nn(CCN6CC(OC)C6)cc5c4)c(-c4c(Cl)c(C)cc5[nH]ncc45)c3C)C2)C1` (single isomer, unassigned) [Example 82b], the IC50 was 712 nM.

Regarding `C=CC(=O)N1CC2(CC(n3nc(-c4ccc5c(cnn5CCO)c4)c(-c4c(Cl)c(C)cc5[nH]ncc45)c3C)C2)C1` (single isomer, unassigned) [Example 83a, 1-(6-(4-(5-chloro-6-methyl-1H-indazol-4-yl)-3-(1-(2-hydroxyethyl)-1H-indazol-5-yl)-5-methyl-1H-pyrazol-1-yl)-2-azaspiro[3.3]heptan-2-yl)prop-2-en-1-one], the IC50 stood at 18 nM.

For `C=CC(=O)N1CC2(CC(n3nc(-c4ccc5c(cnn5CCO)c4)c(-c4c(Cl)c(C)cc5[nH]ncc45)c3C)C2)C1` (single isomer, unassigned) [Example 83b, 1-(6-(4-(5-chloro-6-methyl-1H-indazol-4-yl)-3-(1-(2-hydroxyethyl)-1H-indazol-5-yl)-5-methyl-1H-pyrazol-1-yl)-2-azaspiro[3.3]heptan-2-yl)prop-2-en-1-one], the IC50 amounted to 4000 nM.

In the case of `C=CC(=O)N1CC2(CC(n3nc(-c4cccnc4C)c(-c4c(Cl)c(C)cc5[nH]ncc45)c3C(F)F)C2)C1` (single isomer, unassigned) [Example 84a, 1-(6-(4-(5-Chloro-6-methyl-1H-indazol-4-yl)-5-(difluoromethyl)-3-(2-methylpyridin-3-yl)-1H-pyrazol-1-yl)-2-azaspiro[3.3]heptan-2-yl)prop-2-en-1-one], the IC50 was found to be 536 nM.

Take `C=CC(=O)N1CC2(CC(n3nc(-c4cccnc4C)c(-c4c(Cl)c(C)cc5[nH]ncc45)c3C(F)F)C2)C1` (single isomer, unassigned) [Example 84b, 1-(6-(4-(5-Chloro-6-methyl-1H-indazol-4-yl)-5-(difluoromethyl)-3-(2-methylpyridin-3-yl)-1H-pyrazol-1-yl)-2-azaspiro[3.3]heptan-2-yl)prop-2-en-1-one]: the 50% inhibitory concentration (IC50) is > 50000 nM.

As to `C=CC(=O)N1CC2(CC(n3nc(-c4cccnc4)c(-c4c(Cl)c(Cl)cc5[nH]ncc45)c3C(F)F)C2)C1` (single isomer, unassigned) [Example 85a], the IC50 worked out at 335 nM.

For the compound `C=CC(=O)N1CC2(CC(n3nc(-c4cccnc4)c(-c4c(Cl)c(Cl)cc5[nH]ncc45)c3C(F)F)C2)C1` (single isomer, unassigned) [Example 85b], the IC50 is 21600 nM.

`C=CC(=O)N1CC2(CC(n3nc(-c4cncnc4)c(-c4c(Cl)c(Cl)cc5[nH]ncc45)c3C(F)F)C2)C1` (single isomer, unassigned) [Example 86a]: the IC50 is 1300 nM.

In the case of `C=CC(=O)N1CC2(CC(n3nc(-c4cncnc4)c(-c4c(Cl)c(Cl)cc5[nH]ncc45)c3C(F)F)C2)C1` (single isomer, unassigned) [Example 86b], the IC50 was > 50000 nM.

In the case of `C=CC(=O)N1CC2(CC(n3nc(-c4cccnc4)c(-c4c(Cl)c(C)cc5[nH]ncc45)c3C(F)F)C2)C1` (single isomer, unassigned) [Example 87a], the IC50 was 806 nM.

In the case of `C=CC(=O)N1CC2(CC(n3nc(-c4cccnc4)c(-c4c(Cl)c(C)cc5[nH]ncc45)c3C(F)F)C2)C1` (single isomer, unassigned) [Example 87b], the IC50 is > 50000 nM.

`C=CC(=O)N1CC2(CC(n3nc(-c4cccnc4C)c(-c4c(Cl)ccc5[nH]ncc45)c3C)C2)C1` (single isomer, unassigned) [Example 89a]: the IC50 was 2300 nM.

Consider `C=CC(=O)N1CC2(CC(n3nc(-c4cccnc4C)c(-c4c(Cl)ccc5[nH]ncc45)c3C)C2)C1` (single isomer, unassigned) [Example 89b], for which the IC50 was 25500 nM.

For `C=CC(=O)N1CC2(CC(n3nc(-c4cnc(OC)nc4)c(-c4c(Cl)ccc5[nH]ncc45)c3C)C2)C1` (single isomer, unassigned) [Example 90a], the IC50 was 3500 nM.

Turning to `C=CC(=O)N1CC2(CC(n3nc(-c4cnc(OC)nc4)c(-c4c(Cl)ccc5[nH]ncc45)c3C)C2)C1` (single isomer, unassigned) [Example 90b], the IC50 was > 50000 nM.
